Results published in patent publication US7205433B2, “Crystal of amino acid ester salt and process for producing the same” (Ajinomoto Co., Inc., priority 2002, dated 2007).

What was measured:
Assay type in all cases: physicochemical
[1] = Experimental Example 4: comparison of hygroscopicity by weight gain over time (40 to 46% RH); details: 24° C.
Protocol: The L-Ala-OEt HCl salt, L-Ala-OEt MsOH salt, L-Ala-OEt BsOH salt, L-Ala-OEt 4-CBS salt, L-Ala-OEt 4-EBS salt, L-Ala-OEt 2,4-DMBS salt, and L-Ala-OEt 2,5-DMBS salt were measured in an amount of about 0.3 g each, left standing in a thermostatic chamber at a temperature of 24° C. and a humidity of 40 to 46% RH, and the hygroscopicity was compared based on the weight gain with the lapse of time. A part of the crystal of the L-Ala-OEt HCl salt was liquefied in 30 minutes, and the liquefied portion increased thereafter with the lapse of time. After 100 minutes, the whole mass became like a sherbet.

[2] = Experimental Example 5: comparison of hygroscopicity by weight gain over time (60 to 66% RH); details: 24 EC
Protocol: The L-Ala-OMe HCl salt, L-Ala-OEt MsOH salt, L-Ala-OEt BsOH salt, L-Ala-OEt 4-CBS salt, L-Ala-OEt 4-EBS salt, L-Ala-OEt 2,4-DMBS salt, and L-Ala-OEt 2,5-DMBS salt were measured in an amount of about 0.3 g each, left standing in a thermostatic chamber at a temperature of 24 EC and a humidity of 60 to 66% RH, and the hygroscopicity was compared based on the weight gain with the lapse of time.

[3] = Experimental Example 7: evaluation of hygroscopicity by weight gain over time (60 to 66% RH); details: 24 EC
Protocol: The L-Ala-OMe HCl salt, L-Ala-OMe 4-EBS salt, L-Ala-OMe 2,4-DMBS salt, and L-Ala-OMe 2,5-DMBS salt were measured in an amount of about 0.3 g each, left standing in a thermostatic chamber at temperature of 24 EC and a humidity of 60 to 66% RH, and the hygroscopicity was compared based on the weight gain with the lapse of time. A part of the crystal of the L-Ala-OMe HCl salt was liquefied in 10 minutes, and the entirety became a sherbet in 20 minute. The liquefied portion increased thereafter with the lapse of time. After 80 minutes, the whole was liquefied.

Row | Molecule | weight increase rate (%) ([1]; 0 minutes) | weight increase rate (%) ([1]; 15 minutes) | weight increase rate (%) ([1]; 30 minutes) | weight increase rate (%) ([1]; 45 minutes) | weight increase rate (%) ([1]; 60 minutes) | weight increase rate (%) ([1]; 75 minutes) | weight increase rate (%) ([1]; 90 minutes) | weight increase rate (%) ([1]; 120 minutes) | weight increase rate (%) ([1]; 150 minutes) | weight increase rate (%) ([1]; 180 minutes) | weight increase rate (%) ([2]; 0 minutes) | weight increase rate (%) ([2]; 10 minutes) | weight increase rate (%) ([2]; 20 minutes) | weight increase rate (%) ([2]; 35 minutes) | weight increase rate (%) ([2]; 50 minutes) | weight increase rate (%) ([2]; 65 minutes) | weight increase rate (%) ([2]; 80 minutes) | weight increase rate (%) ([2]; 95 minutes) | weight increase rate (%) ([2]; 110 minutes) | weight increase rate (%) ([2]; 125 minutes) | further results
1 | CCOC(=O)[C@H](C)N.O=S(=O)(O)c1ccc(Cl)cc1 [L-Ala-OEt 4-CBS salt, L-alanine ethyl ester 4-chlorobenzenesulfonate] | 0.00% | 1.55% | 1.51% | 1.48% | 1.81% | 2.01% | 2.14% | 2.30% | 2.17% | 2.27% | 0.00% | 2.26% | 2.83% | 3.38% | 3.77% | 4.10% | 4.31% | 4.46% | 4.58% | 4.70% | weight increase rate (%) ([2]; 140 minutes): 4.76%; weight increase rate (%) ([2]; 155 minutes): 4.82%; weight increase rate (%) ([2]; 170 minutes): 4.94%; weight increase rate (%) ([2]; 185 minutes): 4.94%; weight increase rate (%) ([2]; 200 minutes): 5.03%
2 | CCOC(=O)[C@H](C)N.O=S(=O)(O)c1ccccc1 [L-Ala-OEt BsOH salt, L-alanine ethyl ester benzenesulfonate] | 0.00% | 0.66% | 0.63% | 0.75% | 0.93% | 1.05% | 1.08% | 1.23% | 1.02% | 1.08% | 0.00% | 1.46% | 1.80% | 1.97% | 2.11% | 2.22% | 2.25% | 2.28% | 2.22% | 2.22% | weight increase rate (%) ([2]; 140 minutes): 2.22%; weight increase rate (%) ([2]; 155 minutes): 2.22%; weight increase rate (%) ([2]; 170 minutes): 2.28%; weight increase rate (%) ([2]; 185 minutes): 2.25%; weight increase rate (%) ([2]; 200 minutes): 2.25%
3 | L-alanine ethyl ester 2,4-dimethylbenzenesulfonate [L-Ala-OEt 2,4-DMBS salt] | 0.00% | 0.00% | 0.00% | 0.00% | 0.03% | 0.03% | 0.06% | 0.06% | 0.06% | 0.06% | 0.00% | 0.00% | 0.00% | 0.00% | 0.00% | 0.00% | 0.03% | 0.00% | 0.03% | 0.03% | weight increase rate (%) ([2]; 140 minutes): 0.03%; weight increase rate (%) ([2]; 155 minutes): 0.03%; weight increase rate (%) ([2]; 170 minutes): 0.06%; weight increase rate (%) ([2]; 185 minutes): 0.06%; weight increase rate (%) ([2]; 200 minutes): 0.06%
4 | L-alanine ethyl ester 2,5-dimethylbenzenesulfonate [L-Ala-OEt 2,5-DMBS salt] | 0.00% | 0.00% | 0.00% | 0.06% | 0.10% | 0.16% | 0.19% | 0.26% | 0.32% | 0.32% | 0.00% | 0.00% | 0.03% | 0.03% | 0.09% | 0.06% | 0.06% | 0.06% | 0.12% | 0.06% | weight increase rate (%) ([2]; 140 minutes): 0.09%; weight increase rate (%) ([2]; 155 minutes): 0.09%; weight increase rate (%) ([2]; 170 minutes): 0.09%; weight increase rate (%) ([2]; 185 minutes): 0.09%; weight increase rate (%) ([2]; 200 minutes): 0.12%
5 | L-alanine ethyl ester 4-ethylbenzenesulfonate [L-Ala-OEt 4-EBS salt] | 0.00% | 0.00% | 0.00% | 0.00% | 0.13% | 0.19% | 0.22% | 0.41% | 0.54% | 0.36% | 0.00% | 0.09% | 0.09% | 0.15% | 0.15% | 0.15% | 0.15% | 0.15% | 0.18% | 0.15% | weight increase rate (%) ([2]; 140 minutes): 0.18%; weight increase rate (%) ([2]; 155 minutes): 0.18%; weight increase rate (%) ([2]; 170 minutes): 0.18%; weight increase rate (%) ([2]; 185 minutes): 0.15%; weight increase rate (%) ([2]; 200 minutes): 0.21%
6 | L-alanine methyl ester 2,4-dimethylbenzenesulfonate [L-Ala-OMe 2,4-DMBS salt] | – | – | – | – | – | – | – | – | – | – | – | – | – | – | – | – | – | – | – | – | weight increase rate (%) ([3]; 0 min): 0.00%; weight increase rate (%) ([3]; 10 min): 0.33%; weight increase rate (%) ([3]; 20 min): 0.37%; weight increase rate (%) ([3]; 35 min): 0.37%; weight increase rate (%) ([3]; 50 min): 0.37%; weight increase rate (%) ([3]; 65 min): 0.37%; weight increase rate (%) ([3]; 80 min): 0.37%; weight increase rate (%) ([3]; 95 min): 0.37%; weight increase rate (%) ([3]; 110 min): 0.40%; weight increase rate (%) ([3]; 125 min): 0.43%; weight increase rate (%) ([3]; 140 min): 0.40%; weight increase rate (%) ([3]; 155 min): 0.43%; weight increase rate (%) ([3]; 170 min): 0.47%; weight increase rate (%) ([3]; 185 min): 0.50%; weight increase rate (%) ([3]; 200 min): 0.50%
7 | L-alanine methyl ester 2,5-dimethylbenzenesulfonate [L-Ala-OMe 2,5-DMBS salt] | – | – | – | – | – | – | – | – | – | – | – | – | – | – | – | – | – | – | – | – | weight increase rate (%) ([3]; 0 min): 0.00%; weight increase rate (%) ([3]; 10 min): 0.06%; weight increase rate (%) ([3]; 20 min): 0.06%; weight increase rate (%) ([3]; 35 min): 0.06%; weight increase rate (%) ([3]; 50 min): 0.03%; weight increase rate (%) ([3]; 65 min): 0.03%; weight increase rate (%) ([3]; 80 min): 0.03%; weight increase rate (%) ([3]; 95 min): 0.00%; weight increase rate (%) ([3]; 110 min): 0.03%; weight increase rate (%) ([3]; 125 min): 0.06%; weight increase rate (%) ([3]; 140 min): 0.00%; weight increase rate (%) ([3]; 155 min): 0.00%; weight increase rate (%) ([3]; 170 min): 0.03%; weight increase rate (%) ([3]; 185 min): 0.03%; weight increase rate (%) ([3]; 200 min): 0.06%
8 | L-alanine methyl ester 4-ethylbenzenesulfonate [L-Ala-OMe 4-EBS salt] | – | – | – | – | – | – | – | – | – | – | – | – | – | – | – | – | – | – | – | – | weight increase rate (%) ([3]; 0 min): 0.00%; weight increase rate (%) ([3]; 10 min): 0.06%; weight increase rate (%) ([3]; 20 min): 0.06%; weight increase rate (%) ([3]; 35 min): 0.06%; weight increase rate (%) ([3]; 50 min): 0.06%; weight increase rate (%) ([3]; 65 min): 0.03%; weight increase rate (%) ([3]; 80 min): 0.06%; weight increase rate (%) ([3]; 95 min): 0.06%; weight increase rate (%) ([3]; 110 min): 0.03%; weight increase rate (%) ([3]; 125 min): 0.06%; weight increase rate (%) ([3]; 140 min): 0.06%; weight increase rate (%) ([3]; 155 min): 0.06%; weight increase rate (%) ([3]; 170 min): 0.06%; weight increase rate (%) ([3]; 185 min): 0.06%; weight increase rate (%) ([3]; 200 min): 0.06%
